Reference: patent US20040086901A1, “Database for analyzing gene function and method of analyzing gene function by dspa” (priority 2000, published 2004)

How the values were obtained:
Format in all cases: cell-based, mouse
[1] = tested on: NIH3T3 cells overexpressing TK; assay: MTT cell viability, TK overexpressing cells vs parental line; details: TK high-expressing cells / parental cell line, 3 to 4 days
Summary of the method: (§1)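 Stable NIH3T3 transfectants (cDNA in pRc-CMV-type vector, G-418-selected, high expressers picked by Western blot) and parental cells were seeded at 1×10^5 cells/ml into twofold serial drug dilutions and grown 3–4 days. MTT formazan was read at 574/655 nm, and log ratios of IC40 values were derived.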

[2] = tested on: NIH3T3 cells overexpressing Regucalcin; assay: MTT cell viability, Regucalcin overexpressing cells vs parental line; details: Regucalcin high-expressing cells / parental cell line, 3 to 4 days
Summary of the method: as §1

[3] = tested on: NIH3T3 cells overexpressing p53(wt); assay: MTT cell viability, p53(wt) overexpressing cells vs parental line; details: p53(wt) high-expressing cells / parental cell line, 3 to 4 days
Summary of the method: (§2)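 Sensitivity is expressed as the logarithm of the ratio of IC40 values between gene-overexpressing and parental NIH3T3 cells. IC40 comes from an MTT assay after 3–4 days of drug exposure, with absorbance read at 574 nm against 655 nm. Untreated wells served as 100% and cell-free wells as 0% controls.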

[4] = tested on: NIH3T3 cells overexpressing cystatin alpha; assay: MTT cell viability, cystatin alpha overexpressing cells vs parental line; details: cystatin alpha high-expressing cells / parental cell line, 3 to 4 days
Summary of the method: as §1

[5] = tested on: NIH3T3 cells overexpressing HSP9O; assay: MTT cell viability, HSP9O overexpressing cells vs parental line; details: HSP9O high-expressing cells / parental cell line, 3 to 4 days
Summary of the method: as §1

[6] = tested on: NIH3T3 cells overexpressing Ha-ras; assay: MTT cell viability, drug sensitivity of Ha-ras overexpressing cells vs parental line; details: Ha-ras high-expressing cells / parental cell line, 3 to 4 days
Summary of the method: as §2

[7] = tested on: NIH3T3 cells overexpressing PDGF-R-Del; assay: MTT cell viability, PDGF-R-Del overexpressing cells vs parental line; details: PDGF-R-Del high-expressing cells / parental cell line, 3 to 4 days
Summary of the method: as §1

[8] = tested on: NIH3T3 cells overexpressing C/EBPa; assay: MTT cell viability, C/EBPa overexpressing cells vs parental line; details: C/EBPa high-expressing cells / parental cell line, 3 to 4 days
Summary of the method: as §2

[9] = tested on: NIH3T3 cells overexpressing p16/INK4A; assay: MTT cell viability, p16/INK4A overexpressing cells vs parental line; details: p16/INK4A high-expressing cells / parental cell line, 3 to 4 days
Summary of the method: as §1

[10] = tested on: NIH3T3 cells overexpressing N-ras; assay: MTT cell viability, N-ras overexpressing cells vs parental line; details: N-ras high-expressing cells / parental cell line, 3 to 4 days
Summary of the method: as §1

[11] = tested on: NIH3T3 cells overexpressing Ki-ras; assay: MTT cell viability, Ki-ras overexpressing cells vs parental line; details: Ki-ras high-expressing cells / parental cell line, 3 to 4 days
Summary of the method: as §1

[12] = tested on: NIH3T3 cells overexpressing C/EBPb; assay: MTT cell viability, C/EBPb overexpressing cells vs parental line; details: C/EBPb high-expressing cells / parental cell line, 3 to 4 days
Summary of the method: as §2

[13] = tested on: NIH3T3 cells overexpressing caspase-3; assay: MTT cell viability, caspase-3 overexpressing cells vs parental line; details: caspase-3 high-expressing cells / parental cell line, 3 to 4 days
Summary of the method: as §2

[14] = tested on: NIH3T3 cells overexpressing caspase-2; assay: MTT cell viability, caspase-2 overexpressing cells vs parental line; details: caspase-2 high-expressing cells / parental cell line, 3 to 4 days
Summary of the method: as §1

[15] = tested on: NIH3T3 cells overexpressing calpastatin; assay: MTT cell viability, calpastatin overexpressing cells vs parental line; details: calpastatin high-expressing cells / parental cell line, 3 to 4 days
Summary of the method: as §1

[16] = tested on: NIH3T3 cells overexpressing p33/ING1; assay: MTT cell viability, p33/ING1 overexpressing cells vs parental line; details: p33/ING1 high-expressing cells / parental cell line, 3 to 4 days
Summary of the method: as §1

[17] = tested on: NIH3T3 cells overexpressing coup; assay: MTT cell viability, coup overexpressing cells vs parental line; details: coup high-expressing cells / parental cell line, 3 to 4 days
Summary of the method: as §1

[18] = tested on: NIH3T3 cells overexpressing JNK-DN; assay: MTT cell viability, JNK-DN overexpressing cells vs parental line; details: JNK-DN high-expressing cells / parental cell line, 3 to 4 days
Summary of the method: as §1

[19] = tested on: NIH3T3 cells overexpressing Bax; assay: MTT cell viability, Bax overexpressing cells vs parental line; details: 3 to 4 days
Summary of the method: as §2

[20] = tested on: NIH3T3 cells overexpressing STAT1; assay: MTT cell viability, STAT1 overexpressing cells vs parental line; details: STAT1 high-expressing cells / parental cell line, 3 to 4 days
Summary of the method: as §2

[21] = Bax (first of two Bax lines) high-expressing cells / parental cell line
[22] = Bax (second of two Bax lines) high-expressing cells / parental cell line

| SMILES | logarithmic value of ratio of IC40 values [1] | logarithmic value of ratio of IC40 values [2] | logarithmic value of ratio of IC40 values [3] | logarithmic value of ratio of IC40 values [4] | logarithmic value of ratio of IC40 values [5] | logarithmic value of ratio of IC40 values [6] | logarithmic value of ratio of IC40 values [7] | logarithmic value of ratio of IC40 values [8] | logarithmic value of ratio of IC40 values [9] | logarithmic value of ratio of IC40 values [10] | logarithmic value of ratio of IC40 values [11] | logarithmic value of ratio of IC40 values [12] | logarithmic value of ratio of IC40 values [13] | logarithmic value of ratio of IC40 values [14] | logarithmic value of ratio of IC40 values [15] | logarithmic value of ratio of IC40 values [16] | logarithmic value of ratio of IC40 values [17] | logarithmic value of ratio of IC40 values [18] | logarithmic value of ratio of IC40 values [19, 21] | logarithmic value of ratio of IC40 values [19, 22] | other results |
| --- | --- | --- | --- | --- | --- | --- | --- | --- | --- | --- | --- | --- | --- | --- | --- | --- | --- | --- | --- | --- | --- |
| CCCC[C@@H](C)/C=C(C)/C=C(\C)C(=O)NC1=C[C@@](O)(/C=C/C=C/C=C/C(=O)NC2=C(O)CCC2=O)[C@@H]2O[C@@H]2C1=O [Manumycin, manumycin] | 0.00 | 0.04 | 0.12 | −0.19 | −0.13 | −0.30 | 0.09 | 0.00 | 0.08 | −0.09 | −0.24 | 0.47 | 0.04 | 0.08 | 0.02 | 0.18 | 0.09 | −0.05 | −0.07 | 0.06 | logarithmic value of ratio of IC40 values [20]: 0.00 |
| C=C[C@]1(C)CC[C@@H](C(=C)C)C[C@H]1C(=C)C [b-elemene, β-elemene] | −0.14 | −0.09 | 0.00 | 0.08 | 0.05 | −0.26 | 0.16 | 0.00 | 0.12 | 0.07 | −0.10 | 0.50 | 0.28 | 0.26 | 0.18 | −0.14 | 0.52 | −0.04 | 0.14 | 0.00 | logarithmic value of ratio of IC40 values [20]: 0.05 |
| O=[As]O [NaAsO2, sodium arsenite] | 0.18 | 0.03 | 0.20 | −0.05 | 0.10 | 0.04 | 0.00 | −0.40 | 0.16 | −0.19 | 0.08 | 0.41 | 0.11 | 0.18 | 0 | −0.07 | −0.19 | −0.07 | −0.10 | 0.34 | logarithmic value of ratio of IC40 values [20]: 0.16 |
